Reference: patent publication US20240270762A1, “PENICILLIN-BINDING PROTEIN INHIBITORS” (priority 2021, published 2024)
Converted amounts (≈) assume the structure as drawn.

Experiments:
E. coli ATCC 25922 = assay: microbe, parasite or virus in culture; format: cell-based; conditions: Escherichia coli, ATCC25922, read-out: MIC E. coli 25922
E. coli 901C = assay: microbe, parasite or virus in culture; format: cell-based; conditions: Escherichia coli, read-out: MIC E. coli 901C
K. pneumoniae SI-117 = assay: microbe, parasite or virus in culture; format: cell-based; conditions: Klebsiella pneumoniae, SI117, read-out: MIC K. pneumoniae SI-117
A. baumannii ATCC 19606 = assay: microbe, parasite or virus in culture; format: cell-based; conditions: Acinetobacter baumannii, ATCC19606, read-out: MIC, A. baumannii ATCC 19606
P. aeruginosa ATCC 35151 = assay: microbe, parasite or virus in culture; format: cell-based; conditions: Pseudomonas aeruginosa, ATCC35151, read-out: MIC P. aeruginosa ATCC 35151
[1] = test system: P. aeruginosa (ΔmexAB-oprM); assay: Broth microdilution MIC in CAMHB; format: cell-based; conditions: Pseudomonas aeruginosa; read-out: MIC P. aeruginosa ΔmexAB-oprM
N. gonorrhoeae WHO G = assay: Liquid broth MIC in Fastidious broth; conditions: Neisseria gonorrhoeae, read-out: Minimum Inhibitory Concentration (MIC), N. gonorrhoeae WHO G
N. gonorrhoeae WHO L = assay: Liquid broth MIC in Fastidious broth; conditions: Neisseria gonorrhoeae, read-out: Minimum Inhibitory Concentration (MIC), N. gonorrhoeae WHO L
N. gonorrhoeae WHO K = assay: Liquid broth MIC in Fastidious broth; conditions: Neisseria gonorrhoeae, read-out: Minimum Inhibitory Concentration (MIC), N. gonorrhoeae WHO K
N. gonorrhoeae WHO X = assay: Liquid broth MIC in Fastidious broth; conditions: Neisseria gonorrhoeae, read-out: Minimum Inhibitory Concentration (MIC), N. gonorrhoeae WHO X
N. gonorrhoeae WHO Q = assay: Liquid broth MIC in Fastidious broth; conditions: Neisseria gonorrhoeae, read-out: Minimum Inhibitory Concentration (MIC), N. gonorrhoeae WHO Q
N. gonorrhoeae CDC-0197 = assay: Liquid broth MIC in Fastidious broth; conditions: Neisseria gonorrhoeae, CDC0197, read-out: Minimum Inhibitory Concentration (MIC), N. gonorrhoeae CDC-0197

Compound	MIC (E. coli ATCC 25922)	MIC (E. coli 901C)	MIC (K. pneumoniae SI-117)	MIC (A. baumannii ATCC 19606)	MIC (P. aeruginosa ATCC 35151)	MIC [1]	MIC (N. gonorrhoeae WHO G)	MIC (N. gonorrhoeae WHO L)	MIC (N. gonorrhoeae WHO K)	MIC (N. gonorrhoeae WHO X)	MIC (N. gonorrhoeae WHO Q)	MIC (N. gonorrhoeae CDC-0197)
O=C(O)c1cccc2c1OB(O)[C@@H](NC(=O)C(NS(=O)(=O)C1CC1)c1ccc(P(=O)(O)O)cc1)C2 (stereo partly drawn) [Example 61, (3R)-3-(2-(cyclopropanesulfonamido)-2-(4-phosphonophenyl)acetamido)-2-hydroxy-3,4-dihydro-2H-benzo[e][1,2]oxaborinine-8-carboxylic acid]	> 128 µg/mL	32 to 64 µg/mL (≈ 61 to 122 µM)	> 128 µg/mL	> 128 µg/mL	32 to 64 µg/mL (≈ 61 to 122 µM)	> 128 µg/mL	16 to 32 µg/mL (≈ 30.5 to 61 µM)	16 to 32 µg/mL (≈ 30.5 to 61 µM)	16 to 32 µg/mL (≈ 30.5 to 61 µM)	16 to 32 µg/mL (≈ 30.5 to 61 µM)	16 to 32 µg/mL (≈ 30.5 to 61 µM)	16 to 32 µg/mL (≈ 30.5 to 61 µM)
O=C(O)c1cccc2c1OB(O)[C@@H](NC(=O)[C@H](NC(=O)c1cnc3sccn3c1=O)c1ccc(P(=O)(O)O)cc1)C2 (single isomer, unassigned) [Example 195]	> 128 µg/mL	2 to 4 µg/mL (≈ 3.34 to 6.69 µM)	> 128 µg/mL	> 128 µg/mL	< 1 µg/mL	8 to 16 µg/mL (≈ 13.4 to 26.7 µM)	1 to 2 µg/mL (≈ 1.67 to 3.34 µM)	16 to 32 µg/mL (≈ 26.7 to 53.5 µM)	16 to 32 µg/mL (≈ 26.7 to 53.5 µM)	16 to 32 µg/mL (≈ 26.7 to 53.5 µM)	4 to 8 µg/mL (≈ 6.69 to 13.4 µM)	4 to 8 µg/mL (≈ 6.69 to 13.4 µM)
CC(=O)N1CCC[C@H]1C(=O)NC(C(=O)N[C@H]1Cc2cccc(C(=O)O)c2OB1O)c1ccc(P(=O)(O)O)cc1 (stereo partly drawn) [Example 65, (3R)-3-(2-((S)-1-acetylpyrrolidine-2-carboxamido)-2-(4-phosphonophenyl)acetamido)-2-hydroxy-3,4-dihydro-2H-benzo[e][1,2]oxaborinine-8-carboxylic acid]	> 128 µg/mL	32 to 64 µg/mL (≈ 57.2 to 114 µM)	> 128 µg/mL	> 128 µg/mL	8 to 16 µg/mL (≈ 14.3 to 28.6 µM)	> 128 µg/mL	16 to 32 µg/mL (≈ 28.6 to 57.2 µM)	16 to 32 µg/mL (≈ 28.6 to 57.2 µM)	16 to 32 µg/mL (≈ 28.6 to 57.2 µM)	16 to 32 µg/mL (≈ 28.6 to 57.2 µM)	16 to 32 µg/mL (≈ 28.6 to 57.2 µM)	16 to 32 µg/mL (≈ 28.6 to 57.2 µM)
NS(=O)(=O)NC(C(=O)N[C@H]1Cc2cccc(C(=O)O)c2OB1O)c1ccc(P(=O)(O)O)cc1 (stereo partly drawn) [Example 58, (3R)-2-hydroxy-3-(2-(4-phosphonophenyl)-2-(sulfamoylamino)acetamido)-3,4-dihydro-2H-benzo[e][1,2]oxaborinine-8-carboxylic acid]	> 128 µg/mL	> 128 µg/mL	> 128 µg/mL	> 128 µg/mL	> 128 µg/mL	> 128 µg/mL	16 to 32 µg/mL (≈ 32.1 to 64.1 µM)	16 to 32 µg/mL (≈ 32.1 to 64.1 µM)	16 to 32 µg/mL (≈ 32.1 to 64.1 µM)	16 to 32 µg/mL (≈ 32.1 to 64.1 µM)	16 to 32 µg/mL (≈ 32.1 to 64.1 µM)	16 to 32 µg/mL (≈ 32.1 to 64.1 µM)
O=C1CC[C@H](C(=O)NC(C(=O)N[C@H]2Cc3cccc(C(=O)O)c3OB2O)c2ccc(P(=O)(O)O)cc2)N1 (stereo partly drawn) [Example 53, (3R)-2-hydroxy-3-(2-((R)-5-oxopyrrolidine-2-carboxamido)-2-(4-phosphonophenyl)acetamido)-3,4-dihydro-2H-benzo[e][1,2]oxaborinine-8-carboxylic acid]	> 128 µg/mL	8 to 16 µg/mL (≈ 15.1 to 30.1 µM)	> 128 µg/mL	> 128 µg/mL	8 to 16 µg/mL (≈ 15.1 to 30.1 µM)	> 128 µg/mL	1 to 2 µg/mL (≈ 1.88 to 3.76 µM)	16 to 32 µg/mL (≈ 30.1 to 60.2 µM)	16 to 32 µg/mL (≈ 30.1 to 60.2 µM)	16 to 32 µg/mL (≈ 30.1 to 60.2 µM)	16 to 32 µg/mL (≈ 30.1 to 60.2 µM)	4 to 8 µg/mL (≈ 7.53 to 15.1 µM)
O=C(O)c1cccc2c1OB(O)[C@@H](NC(=O)C(NC(=O)[C@H]1CCCN1)c1ccc(P(=O)(O)O)cc1)C2 (stereo partly drawn) [Example 52, (3R)-2-hydroxy-3-(2-(4-phosphonophenyl)-2-((R)-pyrrolidine-2-carboxamido)acetamido)-3,4-dihydro-2H-benzo[e][1,2]oxaborinine-8-carboxylic acid]	> 128 µg/mL	32 to 64 µg/mL (≈ 61.9 to 124 µM)	32 to 64 µg/mL (≈ 61.9 to 124 µM)	> 128 µg/mL	8 to 16 µg/mL (≈ 15.5 to 30.9 µM)	> 128 µg/mL	16 to 32 µg/mL (≈ 30.9 to 61.9 µM)	4 to 8 µg/mL (≈ 7.73 to 15.5 µM)	16 to 32 µg/mL (≈ 30.9 to 61.9 µM)	16 to 32 µg/mL (≈ 30.9 to 61.9 µM)	16 to 32 µg/mL (≈ 30.9 to 61.9 µM)	16 to 32 µg/mL (≈ 30.9 to 61.9 µM)
CCN1CCN(C(=O)N[C@H](C(=O)N[C@H]2Cc3ccc(F)c(C(=O)O)c3OB2O)c2ccc(P(=O)(O)O)cc2)C(=O)C1=O (single isomer, unassigned) [Example 9]	> 128 µg/mL	2 to 4 µg/mL (≈ 3.3 to 6.6 µM)	> 128 µg/mL	> 128 µg/mL	8 to 16 µg/mL (≈ 13.2 to 26.4 µM)	> 128 µg/mL	< 1 µg/mL	4 to 8 µg/mL (≈ 6.6 to 13.2 µM)	1 to 2 µg/mL (≈ 1.65 to 3.3 µM)	1 to 2 µg/mL (≈ 1.65 to 3.3 µM)	1 to 2 µg/mL (≈ 1.65 to 3.3 µM)	< 1 µg/mL
Cn1cccc(C(=O)N[C@H](C(=O)N[C@H]2Cc3cccc(C(=O)O)c3OB2O)c2ccc(P(=O)(O)O)cc2)c1=O (single isomer, unassigned) [Example 181]	> 128 µg/mL	32 to 64 µg/mL (≈ 57.6 to 115 µM)	> 128 µg/mL	> 128 µg/mL	8 to 16 µg/mL (≈ 14.4 to 28.8 µM)	> 128 µg/mL	4 to 8 µg/mL (≈ 7.2 to 14.4 µM)	16 to 32 µg/mL (≈ 28.8 to 57.6 µM)	16 to 32 µg/mL (≈ 28.8 to 57.6 µM)	16 to 32 µg/mL (≈ 28.8 to 57.6 µM)	16 to 32 µg/mL (≈ 28.8 to 57.6 µM)	16 to 32 µg/mL (≈ 28.8 to 57.6 µM)
CN1CCC[C@@H]1C(=O)N[C@@H](C(=O)N[C@H]1Cc2cccc(C(=O)O)c2OB1O)c1ccc(P(=O)(O)O)cc1 (racemic) [Example 54, (R)-2-hydroxy-3-((S)-2-((R)-1-methylpyrrolidine-2-carboxamido)-2-(4-phosphonophenyl)acetamido)-3,4-dihydro-2H-benzo[e][1,2]oxaborinine-8-carboxylic acid and (R)-2-hydroxy-3-((R)-2-((R)-1-methylpyrrolidine-2-carboxamido)-2-(4-phosphonophenyl)acetamido)-3,4-dihydro-2H-benzo[e][1,2]oxaborinine-8-carboxylic acid]	> 128 µg/mL	32 to 64 µg/mL (≈ 60.2 to 120 µM)	> 128 µg/mL	> 128 µg/mL	32 to 64 µg/mL (≈ 60.2 to 120 µM)	> 128 µg/mL	16 to 32 µg/mL (≈ 30.1 to 60.2 µM)	16 to 32 µg/mL (≈ 30.1 to 60.2 µM)	16 to 32 µg/mL (≈ 30.1 to 60.2 µM)	16 to 32 µg/mL (≈ 30.1 to 60.2 µM)	16 to 32 µg/mL (≈ 30.1 to 60.2 µM)	4 to 8 µg/mL (≈ 7.53 to 15.1 µM)
O=C(O)c1cccc2c1OB(O)[C@@H](NC(=O)C(NC(=O)c1ccc[nH]c1=O)c1ccc(P(=O)(O)O)cc1)C2 (stereo partly drawn) [Example 174, (3R)-2-hydroxy-3-(2-(2-oxo-1,2-dihydropyridine-3-carboxamido)-2-(4-phosphonophenyl)acetamido)-3,4-dihydro-2H-benzo[e][1,2]oxaborinine-8-carboxylic acid]	> 128 µg/mL	8 to 16 µg/mL (≈ 14.8 to 29.6 µM)	> 128 µg/mL	> 128 µg/mL	2 to 4 µg/mL (≈ 3.7 to 7.39 µM)	32 to 64 µg/mL (≈ 59.1 to 118 µM)	1 to 2 µg/mL (≈ 1.85 to 3.7 µM)	16 to 32 µg/mL (≈ 29.6 to 59.1 µM)	16 to 32 µg/mL (≈ 29.6 to 59.1 µM)	16 to 32 µg/mL (≈ 29.6 to 59.1 µM)	16 to 32 µg/mL (≈ 29.6 to 59.1 µM)	16 to 32 µg/mL (≈ 29.6 to 59.1 µM)
O=C1CC[C@@H](C(=O)NC(C(=O)N[C@H]2Cc3cccc(C(=O)O)c3OB2O)c2ccc(P(=O)(O)O)cc2)N1 (stereo partly drawn) [Example 64, (3R)-2-hydroxy-3-(2-((S)-5-oxopyrrolidine-2-carboxamido)-2-(4-phosphonophenyl)acetamido)-3,4-dihydro-2H-benzo[e][1,2]oxaborinine-8-carboxylic acid]	> 128 µg/mL	8 to 16 µg/mL (≈ 15.1 to 30.1 µM)	> 128 µg/mL	> 128 µg/mL	8 to 16 µg/mL (≈ 15.1 to 30.1 µM)	> 128 µg/mL	4 to 8 µg/mL (≈ 7.53 to 15.1 µM)	16 to 32 µg/mL (≈ 30.1 to 60.2 µM)	16 to 32 µg/mL (≈ 30.1 to 60.2 µM)	16 to 32 µg/mL (≈ 30.1 to 60.2 µM)	16 to 32 µg/mL (≈ 30.1 to 60.2 µM)	4 to 8 µg/mL (≈ 7.53 to 15.1 µM)
